Data taken from patent publication US5962417A, “Methods of modulating melanin synthesis” (Trustees of Boston University, priority 1998, dated 1999).

How the values were obtained:
TRP 1 = test system: TRP 1
Description: (§1) To investigate whether PKC regulates other melanogenic proteins such as tyrosinase related proteins (TPR 1 and TPR 2), melanocytes were treated with 10^-7 M TPA for 2 weeks, a condition known to deplete PKC, and TRP 1 and TRP 2 protein levels were determined using immunoblot analysis with specific antibodies. […] TRP 1 and TRP 2 were immunoprecipitated and incorporation of ^3 H-glycosamine into these proteins was examined.

TRP 2 = target: TRP 2
Description: as §1

[1] = 10^-7 M TPA for 2 weeks (PKC depletion), melanocytes
[2] = TPA for 2 weeks, melanocytes labeled with 3H-glycosamine

Compound: CCCCCCCCCCCCCC(=O)O[C@@H]1[C@@H](C)[C@@]2(O)[C@@H](C=C(CO)C[C@]3(O)C(=O)C(C)=C[C@@H]23)[C@@H]2C(C)(C)[C@]12OC(C)=O [TPA, tetraphorbol acetate]
- effect on TRP 1 protein level (TRP 1; [1]): no effect
- effect on glycosylated or non-glycosylated form of TRP 1 (3H-glycosamine labeling) (TRP 1; [2]): did not affect
- effect on 65 kd non-glycosylated TRP 2 precursor (TRP 2; [1]): unaffected
- reduction of level of glycosylated mature form of TRP 2 (80 kd) (TRP 2; [1]): 50-70%
- reduction of 3H-glycosamine incorporation into TRP 2 (TRP 2; [2]): > 50%
